Measured values published in US11325899B2, “Benzofurane and benzothiophene derivatives as PGE2 receptor modulators” (IDORSIA PHARMACEUTICALS LTD, priority 2017, dated 2022).

Experiments:
Format in all cases: cell-based
PTGER2 (EP2) = target: T1, PTGER2 (EP2) (Homo sapiens, UniProt P43116); test: hEP2 b-arrestin assay (PathHunter HEK 293 PTGER2 b-arrestin cells); details: antagonistic activity, beta-arrestin assay; read-out: hEP2 b-arr IC50
T1 construct: host or cells: HEK 293 (PathHunter PTGER2 b-arrestin cell line)
T1 sequence (P43116 whole entry): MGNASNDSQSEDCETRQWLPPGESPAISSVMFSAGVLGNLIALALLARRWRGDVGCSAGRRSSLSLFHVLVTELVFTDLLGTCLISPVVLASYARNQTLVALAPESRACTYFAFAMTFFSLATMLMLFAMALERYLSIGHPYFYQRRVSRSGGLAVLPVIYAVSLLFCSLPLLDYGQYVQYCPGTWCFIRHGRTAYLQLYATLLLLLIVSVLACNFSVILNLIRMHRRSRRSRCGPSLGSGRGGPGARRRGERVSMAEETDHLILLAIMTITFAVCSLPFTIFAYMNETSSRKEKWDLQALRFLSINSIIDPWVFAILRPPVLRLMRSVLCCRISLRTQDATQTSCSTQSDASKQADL
How it was run: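 PathHunter HEK293 cells with ProLink-tagged EP2 and EA-β-arrestin 2 preincubated 15 min at 37 °C with compound (10 μM-2 nM or 1 μM-0.2 nM), then stimulated 120 min with 5 μM PGE2 (EC80). β-gal complementation read by chemiluminescence; IC50 from duplicate dose-response versus DMSO.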

PTGER4 (EP4) = target: T2, PTGER4 (EP4) (Homo sapiens, UniProt P35408); test: hEP4 b-arrestin assay (PathHunter HEK 293 PTGER4 b-arrestin cells); details: antagonistic activity, beta-arrestin assay; read-out: hEP4 b-arr IC50
T2 construct: host or cells: HEK 293 (PathHunter PTGER4 b-arrestin cell line)
T2 sequence (P35408 whole entry): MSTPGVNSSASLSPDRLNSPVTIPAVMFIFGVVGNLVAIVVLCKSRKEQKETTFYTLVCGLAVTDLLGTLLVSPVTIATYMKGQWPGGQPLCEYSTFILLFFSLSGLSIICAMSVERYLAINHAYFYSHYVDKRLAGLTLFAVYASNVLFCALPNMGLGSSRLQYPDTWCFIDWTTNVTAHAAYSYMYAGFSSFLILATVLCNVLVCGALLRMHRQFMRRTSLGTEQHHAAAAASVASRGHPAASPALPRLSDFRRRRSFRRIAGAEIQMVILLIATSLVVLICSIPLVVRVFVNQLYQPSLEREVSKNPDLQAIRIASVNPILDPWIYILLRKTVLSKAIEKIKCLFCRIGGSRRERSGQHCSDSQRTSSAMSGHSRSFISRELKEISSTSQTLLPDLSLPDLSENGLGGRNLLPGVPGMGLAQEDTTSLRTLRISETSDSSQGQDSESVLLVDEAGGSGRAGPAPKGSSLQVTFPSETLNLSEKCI
How it was run: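 PathHunter HEK 293 cells expressing ProLink-tagged human EP4 and EA-β-arrestin 2, seeded 24 h before. Compounds (10 μM–2 nM or 1 μM–0.2 nM) preincubated 15 min at 37 °C, then 20 nM PGE2 (EC80) for 120 min at 37 °C. β-gal complementation luminescence read; IC50 from duplicate dose-response curves versus DMSO control.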

EP2 receptor = target: T3, EP2 receptor (Homo sapiens, UniProt P43116); test: hEP2 cAMP assay (SF295 glioblastoma cells, HTRF cAMP, PGE2 stimulation); details: antagonistic activity
T3 construct: SF295 glioblastoma cells express high endogenous EP2 and no EP4; host or cells: SF295 glioblastoma cells
T3 sequence (P43116 whole entry): as the sequence (P43116 whole entry) above
How it was run: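 SF295 glioblastoma cells with endogenous EP2 and no EP4, in HBSS/HEPES/BSA with 2 mM IBMX, pre-incubated 45 min at room temperature with compound, then stimulated 30 min with 75 nM PGE2 (EC80). cAMP measured by HTRF; IC50 fitted from duplicate % cAMP versus DMSO control.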

SMILES	IC50 (PTGER2 (EP2)) [nM]	IC50 (PTGER4 (EP4)) [nM]	IC50 (EP2 receptor) [nM]
CCOc1cc(-c2cc(NCCc3c(CC)oc4c(C)cc(F)cc34)ncn2)sc1C(=O)O [Example 39, 3-Ethoxy-5-{6-[2-(2-ethyl-5-fluoro-7-methyl-benzofuran-3-yl)-ethylamino]-pyrimidin-4-yl}-thiophene-2-carboxylic acid]	31	50	28
COc1cc(-c2cc(NCCc3c(C)sc4c(OC)ccc(Cl)c34)ncn2)ccc1C(=O)O [Example 40, 4-{6-[2-(4-Chloro-7-methoxy-2-methyl-benzo[b]thiophen-3-yl)-ethylamino]-pyrimidin-4-yl}-2-methoxy-benzoic acid]	48	680	94
CCSc1cc(-c2cc(NCCc3c(C)sc4c(C)cccc34)ncn2)ccc1C(=O)O [Example 42, 4-{6-[2-(2,7-Dimethyl-benzo[b]thiophen-3-yl)-ethylamino]-pyrimidin-4-yl}-2-ethylsulfanyl-benzoic acid]	4	328	14
CCSc1cc(-c2cc(NCCc3c(C)sc4ccccc34)ncn2)ccc1C(=O)O [Example 43, 2-Ethylsulfanyl-4-{6-[2-(2-methyl-benzo[b]thiophen-3-yl)-ethylamino]-pyrimidin-4-yl}-benzoic acid]	3	1080	4
CCSc1cc(-c2cc(NCCc3c(C)oc4ccccc34)ncn2)ccc1C(=O)O [Example 44, 2-Ethylsulfanyl-4-{6-[2-(2-methyl-benzofuran-3-yl)-ethylamino]-pyrimidin-4-yl}-benzoic acid]	1	1020	4
CCCc1cc(-c2cc(NCCc3c(C)sc4c(C)cc(F)cc34)ncn2)ccc1C(=O)O [Example 45, 4-{6-[2-(5-Fluoro-2,7-dimethyl-benzo[b]thiophen-3-yl)-ethylamino]-pyrimidin-4-yl}-2-propyl-benzoic acid]	20	57	48
Cc1sc2c(C)cc(F)cc2c1CCNc1cc(-c2cc(C(F)(F)F)c(C(=O)O)s2)ncn1 [Example 46, 5-{6-[2-(5-Fluoro-2,7-dimethyl-benzo[b]thiophen-3-yl)-ethylamino]-pyrimidin-4-yl}-3-trifluoromethyl-thiophene-2-carboxylic acid]	46	93	31
CSc1cc(-c2cc(NCCc3c(C)sc4c(C)cccc34)ncn2)cc(F)c1C(=O)O [Example 47, 4-{6-[2-(2,7-Dimethyl-benzo[b]thiophen-3-yl)-ethylamino]-pyrimidin-4-yl}-2-fluoro-6-methylsulfanyl-benzoic acid]	10	807	12
CSc1cc(-c2cc(NCCc3c(C)sc4c(C)cccc34)ncn2)cc(Cl)c1C(=O)O [Example 50, 2-Chloro-4-{6-[2-(2,7-dimethyl-benzo[b]thiophen-3-yl)-ethylamino]-pyrimidin-4-yl}-6-methylsulfanyl-benzoic acid]	18	432	13
CCOc1cc(-c2cc(NCCc3c(C)sc4c(C)cc(F)cc34)ncn2)sc1CC(=O)O [Example 52, (3-Ethoxy-5-{6-[2-(5-fluoro-2,7-dimethyl-benzo[b]thiophen-3-yl)-ethylamino]-pyrimidin-4-yl}-thiophen-2-yl)-acetic acid]	46	133	95
CCOc1cc(-c2cc(NCCc3c(C#N)sc4c(C)cc(F)cc34)ncn2)ccc1C(=O)O [Example 53, 4-{6-[2-(2-Cyano-5-fluoro-7-methyl-benzo[b]thiophen-3-yl)-ethylamino]-pyrimidin-4-yl}-2-ethoxy-benzoic acid]	9	34	7
CCOc1cc(-c2cc(NCCc3c(C#N)sc4c(OC)cccc34)ncn2)ccc1C(=O)O [Example 54, 4-{6-[2-(2-Cyano-7-methoxy-benzo[b]thiophen-3-yl)-ethylamino]-pyrimidin-4-yl}-2-ethoxy-benzoic acid]	194	60	77
CCOc1cc(-c2cc(NCCc3c(C)sc4c(OC)ccc(F)c34)ncn2)ccc1C(=O)O [Example 55, 2-Ethoxy-4-{6-[2-(4-fluoro-7-methoxy-2-methyl-benzo[b]thiophen-3-yl)-ethylamino]-pyrimidin-4-yl}-benzoic acid]	15	117	40
CCOc1cc(-c2cc(NCCc3c(C)sc4c(C)cc(F)cc34)ncn2)ccc1C(=O)O [Example 56, 2-Ethoxy-4-{6-[2-(5-fluoro-2,7-dimethyl-benzo[b]thiophen-3-yl)-ethylamino]-pyrimidin-4-yl}-benzoic acid]	13	47	19
CCOc1cc(-c2cc(NCCc3c(C)sc4c(OC)ccc(Cl)c34)ncn2)ccc1C(=O)O [Example 57, 4-{6-[2-(4-Chloro-7-methoxy-2-methyl-benzo[b]thiophen-3-yl)-ethylamino]-pyrimidin-4-yl}-2-ethoxy-benzoic acid]	17	287	44
CCOc1cc(-c2cc(NCCc3c(Br)sc4c(C)cc(F)cc34)ncn2)ccc1C(=O)O [Example 58, 4-{6-[2-(2-Bromo-5-fluoro-7-methyl-benzo[b]thiophen-3-yl)-ethylamino]-pyrimidin-4-yl}-2-ethoxy-benzoic acid]	12	454	17
CCOc1cc(-c2cc(NCCc3c(Cl)sc4c(C)cc(F)cc34)ncn2)ccc1C(=O)O [Example 59, 4-{6-[2-(2-Chloro-5-fluoro-7-methyl-benzo[b]thiophen-3-yl)-ethylamino]-pyrimidin-4-yl}-2-ethoxy-benzoic acid]	15	625	12
CCOc1cc(-c2cc(NCCc3c(C)sc4c(C)cccc34)ncn2)ccc1C(=O)O [Example 60, 4-{6-[2-(2,7-Dimethyl-benzo[b]thiophen-3-yl)-ethylamino]-pyrimidin-4-yl}-2-ethoxy-benzoic acid]	7	372	15
CCOc1cc(-c2cc(NCCc3c(C)sc4c(C)ccc(F)c34)ncn2)ccc1C(=O)O [Example 61, 2-Ethoxy-4-{6-[2-(4-fluoro-2,7-dimethyl-benzo[b]thiophen-3-yl)-ethylamino]-pyrimidin-4-yl}-benzoic acid]	22	245	60
CCOc1cc(-c2cc(NCCc3c(C)sc4c(C)c(F)ccc34)ncn2)ccc1C(=O)O [Example 62, 2-Ethoxy-4-{6-[2-(6-fluoro-2,7-dimethyl-benzo[b]thiophen-3-yl)-ethylamino]-pyrimidin-4-yl}-benzoic acid]	12	499	14
CCOc1cc(-c2cc(NCCc3c(C)sc4c(Cl)ccc(Cl)c34)ncn2)ccc1C(=O)O [Example 63, 4-{6-[2-(4,7-Dichloro-2-methyl-benzo[b]thiophen-3-yl)-ethylamino]-pyrimidin-4-yl}-2-ethoxy-benzoic acid]	27	461	64
CCOc1cc(-c2cc(NCCc3c(C)oc4c(C)cc(Cl)cc34)ncn2)ccc1C(=O)O [Example 64, 4-{6-[2-(5-Chloro-2,7-dimethyl-benzofuran-3-yl)-ethylamino]-pyrimidin-4-yl}-2-ethoxy-benzoic acid]	11	522	7
CCOc1cc(-c2cc(NCCc3c(C)sc4c(Cl)cc(F)cc34)ncn2)ccc1C(=O)O [Example 65, 4-{6-[2-(7-Chloro-5-fluoro-2-methyl-benzo[b]thiophen-3-yl)-ethylamino]-pyrimidin-4-yl}-2-ethoxy-benzoic acid]	16	428	15
CCOc1cc(-c2cc(NCCc3c(C)sc4c(C)ccc(Cl)c34)ncn2)ccc1C(=O)O [Example 66, 4-{6-[2-(4-Chloro-2,7-dimethyl-benzo[b]thiophen-3-yl)-ethylamino]-pyrimidin-4-yl}-2-ethoxy-benzoic acid]	27	407	101
CCOc1cc(-c2cc(NCCc3c(C)oc4c(OC)ccc(F)c34)ncn2)ccc1C(=O)O [Example 67, 2-Ethoxy-4-{6-[2-(4-fluoro-7-methoxy-2-methyl-benzofuran-3-yl)-ethylamino]-pyrimidin-4-yl}-benzoic acid]	73	369	142
CCOc1cc(-c2cc(NCCc3c(C)oc4c(Cl)cccc34)ncn2)ccc1C(=O)O [Example 68, 4-{6-[2-(7-Chloro-2-methyl-benzofuran-3-yl)-ethylamino]-pyrimidin-4-yl}-2-ethoxy-benzoic acid]	14	659	39
CCOc1cc(-c2cc(NCCc3c(C)oc4c(C)cc(F)cc34)ncn2)ccc1C(=O)O [Example 69, 2-Ethoxy-4-{6-[2-(5-fluoro-2,7-dimethyl-benzofuran-3-yl)-ethylamino]-pyrimidin-4-yl}-benzoic acid]	24	668	74
